Data reported in the supplement of paper PMC9663587.

What was measured:
Experiment in all cases: area over the GR curve, 72 h; higher = more effect;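 further: Dye Drop or Deep Dye Drop imaging of viable cells in 384-well plates (Hoechst nuclei, LIVE/DEAD dye), nine half-log doses, GR normalized to DMSO controls and time-zero plates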
MDAMB175VII = tested on: MDAMB175VII
MDAMB330 = tested on: MDAMB330
MDAMB453 = tested on: MDAMB453
BT20 = tested on: BT20
MGH312 = tested on: MGH312
MDAMB231 = tested on: MDAMB231
EFM19 = tested on: EFM19
HCC38 = tested on: HCC38
HCC70 = tested on: HCC70
HCC1806 = tested on: HCC1806
UACC812 = tested on: UACC812
184A1 = tested on: 184A1
CAMA1 = tested on: CAMA1

| Compound | area over the GR curve (MDAMB175VII) [GR] | area over the GR curve (MDAMB330) [GR] | area over the GR curve (MDAMB453) [GR] | area over the GR curve (BT20) [GR] | area over the GR curve (MGH312) [GR] | area over the GR curve (MDAMB231) [GR] | area over the GR curve (EFM19) [GR] | area over the GR curve (HCC38) [GR] | area over the GR curve (HCC70) [GR] | area over the GR curve (HCC1806) [GR] | area over the GR curve (UACC812) [GR] | area over the GR curve (184A1) [GR] | area over the GR curve (CAMA1) [GR] | area over the GR curve (MDAMB453; main component drawn) [GR] | area over the GR curve (BT20; main component drawn) [GR] | area over the GR curve (MDAMB231; main component drawn) [GR] | area over the GR curve (HCC38; main component drawn) [GR] | area over the GR curve (HCC70; main component drawn) [GR] | area over the GR curve (HCC1806; main component drawn) [GR] | area over the GR curve (CAMA1; main component drawn) [GR] |
| --- | --- | --- | --- | --- | --- | --- | --- | --- | --- | --- | --- | --- | --- | --- | --- | --- | --- | --- | --- | --- |
| C[C@@H]1COCCN1c1cc(C2([S@](C)(=N)=O)CC2)nc(-c2cc[nH]c3nccc2-3)n1 [AZD6738] (max 10 µM) | 0.063 | 0.0364 | 0.0984 | -0.0437 | -0.22 | -0.0233 | 0.0109 | 0.247 | 0.283 | 0.307 | -0.0578 | -0.0342 | -0.0516 |  |  |  |  |  |  |  |
| NC(=O)Nc1cc(-c2cccc(F)c2)sc1C(=O)N[C@H]1CCCNC1 [AZD7762] (max 10 µM) | 0.816 | 0.704 | 0.853 | 0.197 | 0.469 | 0.527 | 0.222 | 0.916 | 0.839 | 0.89 | 1.02 | -0.0013 | 0.418 |  |  |  |  |  |  |  |
| Cc1nc(NC(=O)N2CCC[C@H]2C(N)=O)sc1-c1ccnc(C(C)(C)C(F)(F)F)c1 [Alpelisib/BYL719] (max 10 µM) | 0.563 | 0.279 | 0.335 | 0.201 | -0.015 | 0.0895 | 0.445 | 0.0391 | 0.112 | 0.0386 | 0.381 | 0.136 | 0.0106 |  |  |  |  |  |  |  |
| CN(C)C/C=C/C(=O)Nc1ccc(O[C@@H]2CCC[C@@H](Nc3ncc(Cl)c(-c4c[nH]c5ccccc45)n3)C2)cc1 [BSJ-01-175] (max 10 µM) | 1.21 | 1.22 | 1.08 | 0.812 | 1.47 | 0.991 | 0.3 | 0.603 | 1.07 | 0.581 | 0.571 | 1.15 | 0.68 |  |  |  |  |  |  |  |
| CC(=O)c1c(C)c2cnc(Nc3ccc(N4CCN(CCOCCOCCOCCNC(=O)COc5cccc6c5C(=O)N(C5CCC(=O)NC5=O)C6=O)CC4)cn3)nc2n(C2CCCC2)c1=O (stereo not given) [BSJ-03-123] (max 10 µM) | 0.446 | 0.443 | 0.267 | 0.423 | 0.129 | 0.353 | 0.318 | 0.566 | 0.181 | 0.21 | 0.367 | 0.708 | 0.658 |  |  |  |  |  |  |  |
| CC(C)Nc1cc(-c2c[nH]c(C(=O)N[C@H](CO)c3cccc(Cl)c3)c2)c(Cl)cn1 [BVD523] (max 10 µM) | 0.472 | 0.133 | 0.0704 | 0.132 | -0.0209 | 0.232 | 0.0226 | 0.237 | 0.296 | 0.0314 | 0.305 | 0.704 | 0.241 |  |  |  |  |  |  |  |
| Cc1c(N)nc([C@H](CC(N)=O)NC[C@H](N)C(N)=O)nc1C(=O)N[C@H](C(=O)N[C@H](C)[C@@H](O)[C@H](C)C(=O)N[C@H](C(=O)NCCc1nc(-c2nc(C(=O)NCCC[S+](C)C)cs2)cs1)[C@@H](C)O)[C@@H](OC1OC(CO)C(O)C(O)C1OC1OC(CO)C(O)C(OC(N)=O)C1O)c1cnc[nH]1 (stereo not given in full) [Bleomycin] (max 10 µM) |  |  |  |  |  |  |  |  |  |  |  |  |  | 0.198 | 0.376 | 0.132 | 0.485 | 0.419 | 0.117 | 0.274 |
| Nc1cc(C(F)(F)F)c(-c2cc(N3CCOCC3)nc(N3CCOCC3)n2)cn1 [Buparlisib/NVP-BKM120] (max 10 µM) | 0.705 | 0.442 | 0.331 | 0.359 | 0.506 | 0.275 | 0.323 | 0.254 | 0.435 | 0.305 | 0.806 | 0.268 | 0.353 |  |  |  |  |  |  |  |
| COc1cc2nccc(Oc3ccc(NC(=O)C4(C(=O)Nc5ccc(F)cc5)CC4)cc3)c2cc1OC [Cabozantinib] (max 10 µM) | -0.124 | 0 | -0.0455 | 0.0446 | -0.0125 | 0.141 | -0.0111 | 0.0283 | 0.255 | -0.021 | -0.092 | 0.0128 | 0.0239 |  |  |  |  |  |  |  |
| COc1cc2c(Oc3ccc4[nH]c(C)cc4c3F)ncnc2cc1OCCCN1CCCC1 [Cediranib/AZD2171] (max 10 µM) | 0.193 | 0.105 | 0.126 | 0.0199 | -0.0345 | 0.116 | 0.0327 | 0.202 | 0.0746 | 0.0606 | 0.342 | 0.0594 | 0.109 |  |  |  |  |  |  |  |
| Cc1cc(Nc2ncc(Cl)c(Nc3ccccc3S(=O)(=O)C(C)C)n2)c(OC(C)C)cc1C1CCNCC1 [Ceritinib/LDK378] (max 10 µM) | -0.0348 | 0.187 | 0.461 | 0.255 | 0.001 | 0.344 | 0.0971 | 0.208 | 0.0676 | 0.156 | 0.085 | 0.347 | 0.236 |  |  |  |  |  |  |  |
| N.N.[Cl][Pt][Cl] [Cisplatin] (max 10 µM) |  |  | 0.0713 | 0.334 |  | 0.15 |  | 0.257 | 0.253 | 0.317 |  |  | 0.328 |  |  |  |  |  |  |  |
| Cc1nc(Nc2ncc(C(=O)Nc3c(C)cccc3Cl)s2)cc(N2CCN(CCO)CC2)n1 [Dasatinib] (max 10 µM) | 0.972 | 0.183 | 0.0776 | 0.329 | 0.908 | 0.647 | 0.685 | 0.145 | 1.06 | 0.63 | 1.15 | 0.264 | 0.152 |  |  |  |  |  |  |  |
| COc1cccc2c1C(=O)c1c(O)c3c(c(O)c1C2=O)C[C@@](O)(C(=O)CO)C[C@@H]3O[C@H]1C[C@H](N)[C@H](O)[C@H](C)O1 [Doxorubicin] (max 3.162 µM) | 0.908 | 0.716 | 0.786 | 0.828 | 1.07 | 0.818 | 0.448 | 0.78 | 0.775 | 0.628 | 1.18 | 0.706 | 0.843 |  |  |  |  |  |  |  |
| CO[C@H]1C[C@@H]2CC[C@@H](C)[C@@](O)(O2)C(=O)C(=O)N2CCCC[C@H]2C(=O)O[C@H]([C@H](C)C[C@@H]2CC[C@@H](OCCO)[C@H](OC)C2)CC(=O)[C@H](C)/C=C(\C)[C@@H](O)[C@@H](OC)C(=O)[C@H](C)C[C@H](C)/C=C/C=C/C=C/1C [Everolimus] (max 10 µM) | 1.14 | 1.28 | 0.888 | 0.593 | 0.798 | 0.225 | 0.731 | 0.486 | 0.476 | 0.197 | 0.984 | 0.452 | 0.767 |  |  |  |  |  |  |  |
| CC[C@@]1(O)C(=O)OCc2c1cc1n(c2=O)Cc2cc3c(CN(C)C)c(O)ccc3nc2-1 [Topotecan] (max 10 µM) |  |  | 0.926 | 1.03 |  | 0.704 |  | 1.07 | 1.06 | 1.07 |  |  | 1.05 |  |  |  |  |  |  |  |
